In patent US20060040884A1, “Antisense oligonucleotides directed to genes regulated by trapoxin-induced HDAC inhibition” (priority 2001, published 2006):
Values joined by “and” are separate entries in the source; they are usually repeats but may differ in a detail not shown here. Identical values can stand only once. Marks after values point to notes of the source that are not given here. Square brackets hold non-standard residues; d marks the D form. Peptide text beside a SMILES is read from it. ξ: configuration not given here. Aoe(9ξ) = N[C@@H](CCCCCC(=O)C1CO1)C(=O)O; dPip = O=C(O)[C@H]1CCCCN1

System: H1299 cells
Assay: Microarray expression profiling of TPX- vs DMSO-treated H1299 cells (Affymetrix HU6800 and Incyte UniGem V arrays)
Type: cell-based, human
Settings: 30 nM vs DMSO
Experimental: Cell Culture and Drug Treatments. […] H1299 cells at 60 to 80% confluence are treated with 30 nM TPX dissolved in dimethyl sulphoxide for a final concentration of 0.1% Me2SO in cell culture medium or 0.1% Me2SO for 0, 6, 12, and 18 h.
Incyte cDNA arrays. H1299 cells are treated with 30 nM TPX dissolved in Me2SO or Me2SO for 0, 6, 12 and 18 h. Final Me2SO concentrations were 0.1% in cell culture medium. Total RNA is extracted using TRIZOL reagent (Life Technologies, Rockville, Md.) and purified using RNAeasy reagents (Qiagen, Valencia Calif.). Poly (A)^+ RNA (mRNA) is prepared from total RNA using Oligotex columns (Qiagen, Valencia, Calif.) and the procedure is repeated twice to minimize contamination with ribosomal RNA. The mRNA concentrations are determined using RiboGreen RNA Quantitation kit (Molecular Probes, Eugene, Oreg.) and equal amounts of mRNA from each sample is used in labeling reactions that are performed by Synteni Division of Incyte Genomics, Inc. (Palo Alto, Calif.). Complementary DNAs are prepared by […] and labeled with Cy3-deoxyuridine triphosphate (Cy3) or Cy5-deoxyuridine triphosphate (Cy5) fluorescent nucleotides. cDNA samples from cells that are treated with Me2SO are labeled with Cy3 and the TPX-treated samples are labeled with Cy5. Replicates were labeled with reversed fluorescent labels to accommodate biases attributable to labeling. The Cy3 and Cy5 samples from each time point are combined and hybridized to UniGem […] arrays (Iyer, V. R., et al., (1999) Science 283, 83-87). This array contains cDNAs that represent approximately 7000 human genes.
Affymetrix oligonucleotide arrays. Total RNA and Poly (A)^+ RNA is isolated from TPX or Me2SO-treated H1299 cells essentially as it was for Incyte cDNA arrays. Total RNA is isolated from p21^waf1-10 cells that are grown in the presence or in the absence of tetracycline for 6, 12 and 48 h. 1st strand cDNA synthesis is performed using Superscript Choice System (Life Technologies) and a T7prFB-t30 primer, 5′-AAACGACGGCACA […]-t30-3′ (SEQ ID NO 1). Biotinylated complementary […] is made using the T7 Megascript system (Ambion, Austin, Tex.), substituting NTP labeling-mix containing biotinylated CTP and UTP. The labeled, purified cDNA is fragmented into <50 bp pieces at 95° C. in MgCl2 buffer to-increase the efficiency of hybridization to 20-mer oligos on the arrays. These labeled fragments are hybridized to HU6800 arrays (Affymetrix, Santa Clara, Calif.) as described previously (Lockhart, D. J., et al., (1996) Nat. Biotechnol. 14, 1675-1680; Alon, U. et al., (1999) Proc. Natl. Acad. Sci. U.S.A. 96, 6745-6750). This array represents approximately 7000 human genes. Briefly, samples are hybridized for 16 h at 45° C. with constant rotation at 60 rpm. The arrays are washed and stained using an Affymetrix fluidics station. The stain included streptavidin-phycoerythrin (10 μg/ml; Molecular Probes, Eugene, Oreg.) and biotinylated goat anti-streptavidin (3 μg/ml; Vector Laboratories, Burlingame, Calif.).
Imaging and Data Analysis. Affymetrix arrays are scanned with a HP argon-ion laser confocal microscope, with a 488 nm […] and detection at 570 nm. Affymetrix fold changes are calculated using GeneChip 3.3 software (Affymetrix). Incyte Pharmaceutical Inc. uses a laser confocal microscope to determine the fluorescence intensities from Incyte cDNA arrays. The fluorescent images (Cy3 and Cy5) from the Incyte cDNA arrays are normalized to total fluorescence from each channel for all genes for labeling efficiency differences and considered the normalized data is used for calculation of the gene expression ratios.

Compound: O=C(CCCCC[C@@H]1NC(=O)[C@H]2CCCCN2C(=O)[C@H](Cc2ccccc2)NC(=O)[C@H](Cc2ccccc2)NC1=O)C1CO1 (stereo partly drawn) [TPX, Trapoxin A] (cyclo(FF[dPip][Aoe(9ξ)]))
- Fold change, D85429 Hsp 40 (12 h): 4.8^8 fold and 5.3^8 fold
- Fold change, J03909 γ-IFN-inducible, IP-30 (12 h): 4.7^7 fold and 5.2^8 fold
- Fold change, L03840 Fibroblast growth factor receptor (12 h): 3.2* fold and 4.9^1 fold
- Fold change, L32976 Mixed lineage kinase-3 (12 h): −2.4* fold
- Fold change, M12174 RhoB (12 h): 5.2^8 fold and 4.5^8 fold
- Fold change, M16938 Homeobox C8 (12 h): NC (<2 fold change in expression level (NC))
- Fold change, M55153 Transglutaminase 2 (12 h): NC (<2 fold change in expression level (NC))
- Fold change, M59828 Hsp 70 (12 h): NC (<2 fold change in expression level (NC))
- Fold change, M76125 Tyrosine kinase receptor (TKR) axl (12 h): NC (<2 fold change in expression level (NC))
- Fold change, M80244 Human E16 (12 h): NC (<2 fold change in expression level (NC))
- Fold change, M86406 Actinin (12 h): 2.1 fold and 2.4 fold
- Fold change, NM006603 Stromal antigen 2 (12 h): NC (<2 fold change in expression level (NC))
- Fold change, U03057 Actin-bundling protein (12 h): 2.4^7 fold and 2.0^7 fold
- Fold change, U09578 MAKAP kinase (3 pk) (12 h): NC (<2 fold change in expression level (NC))
- Fold change, U09579 p21waf1 (1st line) (12 h): 10.5^8 fold and 7.0^8 fold
- Fold change, U09579 p21waf1 (2nd line) (12 h): 3.4 fold and 3.6 fold
- Fold change, U09937 Upa receptor (UpaR) (1st line) (12 h): NC (<2 fold change in expression level (NC))
- Fold change, U14750 Connective tissue growth factor (12 h): 5.6 fold and 3.5 fold
- Fold change, U15782 Cleavage stimulation factor 3 (12 h): NC (<2 fold change in expression level (NC))
- Fold change, U25804 Caspase-4 (12 h): NC (<2 fold change in expression level (NC))
- Fold change, U30827 Srp40 (12 h): NC (<2 fold change in expression level (NC))
- Fold change, U31875 Hep27 (12 h): 11.2^8 fold and 12.3^8 fold
- Fold change, U32519 GAP SH3 binding protein (12 h): 8.3^8 fold and 4.3^3 fold
- Fold change, U48795 Cathelicidin antimicrobial peptide (12 h): 8.5 fold
- Fold change, U56833 VBP-1 (12 h): NC (<2 fold change in expression level (NC))
- Fold change, U77413 O-linked-N-acetylglucosamine transferase (12 h): NC (<2 fold change in expression level (NC))
- Fold change, U84214 Defender against cell death 1 (12 h): 2.5 fold and 2.0 fold
- Fold change, X03473 Histone H1 (0) [Chromatin remodeling] (12 h): 12.0^8 fold and 11.9^8 fold
- Fold change, X03473 Histone H1 (0) [Differentiation] (12 h): 12.0^8 fold and 11.9^8 fold
- Fold change, X04429 Plasminogen activator inhibitor 1 (12 h): NC (<2 fold change in expression level (NC))
- Fold change, X16396 NAD-dependent methylene teterahydrofolate dehydrogenase-methylenyltetrahydrofolate cyclohydrolase (12 h): NC (<2 fold change in expression level (NC))
- Fold change, X37547 Inhibitor of apoptisis homolog C (12 h): NC (<2 fold change in expression level (NC))
- Fold change, X53586 Integrin α-6 (12 h): NC (<2 fold change in expression level (NC))
- Fold change, X55740 5′-nucleotidase (12 h): NC (<2 fold change in expression level (NC))
- Fold change, X66029 TKR axl (12 h): NC (<2 fold change in expression level (NC))
- Fold change, X78687 G9 sialidase (12 h): 4.3^8 fold and 4.5^8 fold
- Fold change, A1581499 Apoptosis inhibitor 2 (18 h): NC (<2 fold change in expression level (NC))
- Fold change, AB011146 KIAA0574, similar to an RNA binding protein (18 h): NC (<2 fold change in expression level (NC))
- Fold change, AF012086 RAN-binding protein 2-like (18 h): NC (<2 fold change in expression level (NC))
- Fold change, AF052578 RAN [Small GTP-ases] (18 h): 2.5 fold and 3.3 fold
- Fold change, AF109161 p35srj [Stress] (18 h): 3.4 fold and 3.3 fold
- Fold change, AF109161 p35srj [Transformation and TKRs] (18 h): 3.4 fold and 3.3 fold
- Fold change, AL047358 Insulin-induced gene 1 (18 h): 2.0 fold and 2.9 fold
- Fold change, AL047358 Spermidine/spermine N1-acetyltransferase (18 h): 2.3 fold and 3.4 fold
- Fold change, D31764 Eph1B-like tyrosine kinase receptor (18 h): NC (<2 fold change in expression level (NC))
- Fold change, D50525 TI-227H (18 h): NC (<2 fold change in expression level (NC))
- Fold change, D85429 Hsp 40 (18 h): 17.1^8 fold and 15.6^8 fold
- Fold change, J03909 γ-IFN-inducible, IP-30 (18 h): 17.1^8 fold and 15.6^8 fold
- Fold change, L03840 Fibroblast growth factor receptor (18 h): 3.7 fold and 4.4 fold
- Fold change, M12174 RhoB (18 h): 6.2^8 fold and 6.1^8 fold
- Fold change, M55153 Transglutaminase 2 (18 h): 2.1 fold and 2.6 fold
- Fold change, M58286 TNF Receptor (18 h): NC (<2 fold change in expression level (NC))
- Fold change, M59828 Hsp 70 (18 h): NC (<2 fold change in expression level (NC))
- Fold change, M80899 AHNAK nucleoprotein/desmoykin (18 h): NC (<2 fold change in expression level (NC))
- Fold change, M86406 Actinin (18 h): NC (<2 fold change in expression level (NC))
- Fold change, U03057 Actin-bundling protein (18 h): NC (<2 fold change in expression level (NC))
- Fold change, U09579 p21waf1 (1st line) (18 h): 3.8* fold and 4.0* fold
- Fold change, U09579 p21waf1 (2nd line) (18 h): 2.7 fold and 3.1 fold
- Fold change, U14750 Connective tissue growth factor (18 h): 3.6 fold and 4.5 fold
- Fold change, U19261 Epstein-Barr-induced LMP1 (18 h): NC (<2 fold change in expression level (NC))
- Fold change, U28749 High mobility group phosphoprotein I-C (HMGI-C) (1st line) (18 h): NC (<2 fold change in expression level (NC))
- Fold change, U30827 Srp40 (18 h): NC (<2 fold change in expression level (NC))
- Fold change, U31875 Hep27 (18 h): 7.1^8 fold and 8.3^8 fold
- Fold change, U32519 GAP SH3 binding protein (18 h): 4.6^8 fold and 4.2^8 fold
- Fold change, U48795 Cathelicidin antimicrobial peptide (18 h): NC (<2 fold change in expression level (NC))
- Fold change, U68019 hMAD3 (18 h): NC (<2 fold change in expression level (NC))
- Fold change, U79285 Clone 23828 (18 h): NC (<2 fold change in expression level (NC))
- Fold change, U84214 Defender against cell death 1 (18 h): NC (<2 fold change in expression level (NC))
- Fold change, X03473 Histone H1 (0) [Chromatin remodeling] (18 h): 3.4* fold and 3.6* fold
- Fold change, X03473 Histone H1 (0) [Differentiation] (18 h): 3.4* fold and 3.6* fold
- Fold change, X37546 Inhibitor of apoptisis homolog B (18 h): NC (<2 fold change in expression level (NC))
- Fold change, X78687 G9 sialidase (18 h): 3.3^8 fold and 2.6^8 fold
